Reference: article PMC10657792, “Downstream Allosteric Modulation of NMDA Receptors by 3-Benzazepine Derivatives” (Molecular Neurobiology, 2023)

Target: GluN1a wt/ GluN2B E236A (Rattus norvegicus, UniProt P35439+Q00960, E236A)
Assay: TEVC recording in X. laevis oocytes, GluN2B mutant screening
Type: cell-based
Details: fitted curve

Sequence of GluN1a wt/ GluN2B E236A (Q00960 27-1482 E236A, other chains not shown): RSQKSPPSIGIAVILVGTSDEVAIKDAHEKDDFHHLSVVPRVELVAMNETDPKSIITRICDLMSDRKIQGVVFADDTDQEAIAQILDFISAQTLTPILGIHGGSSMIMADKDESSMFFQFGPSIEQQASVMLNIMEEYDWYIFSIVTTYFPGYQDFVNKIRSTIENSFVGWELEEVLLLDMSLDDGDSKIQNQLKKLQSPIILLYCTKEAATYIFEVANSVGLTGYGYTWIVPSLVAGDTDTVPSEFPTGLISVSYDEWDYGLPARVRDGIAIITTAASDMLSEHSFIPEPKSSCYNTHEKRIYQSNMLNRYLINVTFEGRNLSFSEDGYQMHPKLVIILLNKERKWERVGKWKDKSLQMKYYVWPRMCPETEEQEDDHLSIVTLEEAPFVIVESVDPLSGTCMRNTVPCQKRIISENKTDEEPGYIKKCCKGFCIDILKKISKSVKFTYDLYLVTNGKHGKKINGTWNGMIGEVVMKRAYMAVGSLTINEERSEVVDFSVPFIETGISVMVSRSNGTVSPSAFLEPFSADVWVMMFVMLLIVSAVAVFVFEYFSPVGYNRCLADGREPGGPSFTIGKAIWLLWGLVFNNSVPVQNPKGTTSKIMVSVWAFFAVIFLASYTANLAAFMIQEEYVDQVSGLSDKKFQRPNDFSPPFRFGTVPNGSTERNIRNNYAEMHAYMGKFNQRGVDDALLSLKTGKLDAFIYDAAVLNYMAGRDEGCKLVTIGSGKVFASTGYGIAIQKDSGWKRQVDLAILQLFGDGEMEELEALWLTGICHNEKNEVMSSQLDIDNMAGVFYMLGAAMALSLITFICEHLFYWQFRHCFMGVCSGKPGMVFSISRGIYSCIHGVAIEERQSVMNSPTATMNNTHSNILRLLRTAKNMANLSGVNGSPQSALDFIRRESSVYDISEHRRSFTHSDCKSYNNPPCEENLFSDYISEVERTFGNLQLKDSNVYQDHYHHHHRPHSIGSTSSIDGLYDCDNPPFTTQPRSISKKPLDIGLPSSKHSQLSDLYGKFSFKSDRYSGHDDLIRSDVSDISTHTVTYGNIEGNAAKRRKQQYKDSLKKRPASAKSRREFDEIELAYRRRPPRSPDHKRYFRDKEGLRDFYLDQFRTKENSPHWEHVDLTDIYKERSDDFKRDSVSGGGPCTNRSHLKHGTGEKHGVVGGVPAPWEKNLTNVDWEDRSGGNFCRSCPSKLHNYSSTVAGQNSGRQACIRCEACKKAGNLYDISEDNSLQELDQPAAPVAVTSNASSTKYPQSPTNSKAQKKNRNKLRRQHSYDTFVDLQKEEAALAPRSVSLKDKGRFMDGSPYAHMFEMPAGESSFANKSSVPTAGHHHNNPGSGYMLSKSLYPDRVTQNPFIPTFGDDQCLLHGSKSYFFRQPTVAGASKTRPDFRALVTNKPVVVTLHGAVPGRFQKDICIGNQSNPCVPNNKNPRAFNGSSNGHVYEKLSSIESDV

IC50 (agonists 10 µM glycine + 10 µM (S)-glutamate): 232 nM | Hill coefficient: 1.1
SMILES: Oc1ccc2c(c1)CCN(CCCCc1ccccc1F)C[C@@H]2O [(R)-OF-NB1]
